This is an account of results in paper PMC4226186, “Biobleaching of Industrial Important Dyes with Peroxidase Partially Purified from Garlic” (The Scientific World Journal, 2014).

The assay concerns T1, garlic peroxidase (Allium sativum peroxidase).
T1 construct: gene class III plant peroxidase; native, partially purified from peeled garlic (ammonium sulphate, dialysis, Sephadex G-200)
Nature of the assay: absorbance change on o-dianisidine oxidation; Lineweaver-Burk plot. In kind it is biochemical. The following applies: co-substrate H2O2; 0.05 M sodium phosphate pH 6.0; 20-120 mM o-dianisidine; partially purified enzyme.

For `COc1cc(-c2ccc(N)c(OC)c2)ccc1N` [o-dianisidine], the Km – broadly, the concentration of substrate that gives half-maximal velocity – stood at 25 mM.
